Tests used:
CSK = target: T1, CSK (Homo sapiens, UniProt P41240); test: Human CSK enzymatic assay (AlphaScreen, Poly (Glu4-Tyr) substrate); format: biochemical; conditions: 100 uM ATP; read-out: CSK IC50 (μM) COFACTOR: 100 uM ATP
T1 construct: purchased Thermo Fisher
Protocol: This assay measures the ability of CSK to phosphorylate a biotinylated peptide containing multiple tyrosine residues in vitro. The CSK enzyme was purchased from Thermo Fisher. The biotinylated Poly (Glu4-Tyr) peptide substrate was purchased from Sigma-Aldrich. The CSK enzyme assay was performed using 0.75 ng CSK enzyme and 30 nM Poly (Glu4-Tyr) substrate in the presence of 25 mM Hepes pH 7.5, 5 mM Mg Acetate, 0.1% NP-40, 1 mM DTT, 0.01% BSA, and 100 μM ATP. A 19 μL volume of the above reaction mixture was added to wells of 384-well AlphaPlate (PerkinElmer GA, USA) containing 1 μL of various concentrations of test compound or DMSO vehicle and incubated for 60 minutes at room temperature. 16 wells containing all the components of reaction mixture and 5% DMSO serve as high control. 16 wells containing all the components except ATP of reaction mixture and 5% DMSO served as low control. The enzymatic reaction was stopped by the addition of 5 μL stop/detection mixture containing 25 mM Hepes pH 7.5 100 mM EDTA, and 5 μg/mL streptavidin-coated AlphaScreen donor beads (PerkinElmer GA, USA) and incubated for 20 minutes. A 5 μL mixture containing 25 mM Hepes pH 7.5, 100 mM EDTA, and 5 μg/mL anti-phosphotyrosine antibody PY20-coated AlphaScreen acceptor beads (PerkinElmer GA, USA) was added and the plate was incubated for 1 hour at room temperature. The streptavidin donor beads bind to the biotin moiety on the biotinylated Poly (Glu4-Tyr) substrate and the PY20 antibody-coated acceptor beads bind to tyrosine residues on the substrate that have been directly phosphorylated by CSK. Upon excitation of these beads with laser light at 680 nm, singlet oxygen was produced. This singlet oxygen was rapidly quenched, unless the AlphaScreen PY20 acceptor beads are in close proximity, in which case a proximity signal can be measured at 580 nm. In the presence of catalytic activity, there was a very strong proximity signal. Selective CSK inhibitors affect a decrease in this proximity signal through a decrease in phosphorylation of the Poly (Glu4-Tyr) substrate. The percentage of inhibition at individual concentrations relative to high and low controls was calculated. The data were analyzed by using nonlinear regression to generate IC50 values. Human LCK enzymatic assay

LCK = target: T2, LCK (Homo sapiens, UniProt P06239); test: Human LCK enzymatic assay (AlphaScreen, Poly (Glu4-Tyr) substrate); format: biochemical; conditions: 100 uM ATP; read-out: LCK IC50 (uM) COFACTOR: 100 uM ATP
T2 construct: purchased ProQinase
T2 sequence (P06239 whole entry): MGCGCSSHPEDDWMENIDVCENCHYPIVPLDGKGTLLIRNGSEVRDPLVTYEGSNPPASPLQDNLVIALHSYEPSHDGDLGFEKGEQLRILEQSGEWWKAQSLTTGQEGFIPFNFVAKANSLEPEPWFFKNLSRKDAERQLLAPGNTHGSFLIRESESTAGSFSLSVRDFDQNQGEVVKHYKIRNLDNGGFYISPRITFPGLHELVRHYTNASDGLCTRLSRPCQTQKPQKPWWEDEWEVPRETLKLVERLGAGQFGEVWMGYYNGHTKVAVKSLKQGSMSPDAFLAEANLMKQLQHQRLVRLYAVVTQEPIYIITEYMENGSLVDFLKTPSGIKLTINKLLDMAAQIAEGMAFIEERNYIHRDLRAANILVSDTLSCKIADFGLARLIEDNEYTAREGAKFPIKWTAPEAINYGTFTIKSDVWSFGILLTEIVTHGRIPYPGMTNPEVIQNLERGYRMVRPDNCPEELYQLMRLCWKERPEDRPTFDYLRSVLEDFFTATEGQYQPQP
Protocol: This assay measures the ability of LCK to phosphorylate a biotinylated peptide containing multiple tyrosine residues in vitro. The LCK enzyme was purchased from ProQinase. The biotinylated Poly (Glu4-Tyr) peptide substrate was purchased from Sigma-Aldrich. The LCK enzyme assay was performed using 1 ng LCK enzyme and 30 nM Poly (Glu4-Tyr) substrate in the presence of 25 mM Hepes pH 7.5, 10 mM MnCl2, 50 mM NaCl, 0.01% Tween-20, 0.5 mM DTT, 0.01% BSA, and 100 μM ATP. A 19 μL volume of the above reaction mixture was added to wells of 384-well AlphaPlate (PerkinElmer GA, USA) containing 1 μL of various concentrations of test compound or DMSO vehicle and incubated for 40 minutes at 25° C. 16 wells containing all the components of reaction mixture and 5% DMSO served as high control. 16 wells containing all the components except ATP of reaction mixture and 5% DMSO served as low control. The enzymatic reaction was stopped by the addition of 5 μL stop/detection mixture containing 25 mM Hepes pH 7.5 100 mM EDTA, and 10 μg/mL streptavidin-coated AlphaScreen donor beads (PerkinElmer GA, USA) and incubated for 20 minutes. A 5 μL mixture containing 25 mM Hepes pH 7.5, 100 mM EDTA, and 10 μg/mL anti-phosphotyrosine antibody PY20-coated AlphaScreen acceptor beads (PerkinElmer GA, USA) was added and the plate was incubated for 1 hour at room temperature. The streptavidin donor beads bind to the biotin moiety on the biotinylated Poly (Glu4-Tyr) substrate and the PY20 antibody-coated acceptor beads bind to tyrosine residues on the substrate that have been directly phosphorylated by LCK. Upon excitation of these beads with laser light at 680 nm, singlet oxygen was produced. This singlet oxygen was rapidly quenched, unless the AlphaScreen PY20 acceptor beads are in close proximity, in which case a proximity signal can be measured at 580 nm. In the presence of catalytic activity, there was a very strong proximity signal. Selective LCK inhibitors affect a decrease in this proximity signal through a decrease in phosphorylation of the Poly (Glu4-Tyr) substrate. The percentage of inhibition at individual concentrations relative to high and low controls was calculated. The data were analyzed by using nonlinear regression to generate IC50 values.

Jurkat/NFAT-RE cells = test: NFAT reporter assay (luciferase) in Jurkat/NFAT-RE cells; format: cell-based; conditions: Homo sapiens, 0.02 μg/mL anti-CD3 antibody OKT3, 3 hours, read-out: Jurkat EC50 (uM) Cell Assay: Reporter Cell Variant: NFAT response element
Description: To assess the ability of CSK inhibitors to activate LCK and stimulate signaling downstream of the T-cell receptor, an NFAT reporter assay was used for monitoring of LCK activation in cells through the activation of LCK-dependent signaling through a reporter assay. The Jurkat T-cell cell line was genetically engineered to express a luciferase reporter that is regulated by the NFAT-response element. (Clipstone, N. A., & Crabtree, G. R., Identification of calcineurin as a key signalling enzyme in T-lymphocyte activation, Nature, 357(6380), 695-697, 1992). Stimulation of the T-cell receptor with anti-CD3 antibody increases the expression of the luciferase reporter. To test the ability of CSK inhibitors to stimulate LCK and downstream T-cell signaling, the cells were stimulated with a suboptimal concentration of anti-CD3 ligand, to measure the ability of CSK inhibitors to increase luciferase expression.
This assay measures the signaling activity downstream of the T-cell receptor, specifically the ability of the NFAT transcription factor to be translocated to the nucleus and induce expression of a firefly luciferase gene. Jurkat/NFAT-RE cells stably expressing the NFAT reporter construct were purchased from BPS Bioscience. The assay was performed by plating 40,000 Jurkat/NFAT-RE cells in a 50 μL volume of serum-free growth media in a 96-well plate. Following an overnight incubation, the cells were treated with CSK inhibitors and 0.02 μg/mL anti-CD3 antibody OKT3 (BD Bioscience) for 3 hours at 37° C. High control wells were stimulated with DMSO and 5 μg/mL OKT3 to maximally stimulate the NFAT reporter, and low control wells were stimulated with DMSO and 0.02 μg/mL OKT3. Following the 3 hour incubation, the cells were assayed for viability using CellTiter-Fluor™ (Promega), and for luciferase expression using ONE-Glo™ (Promega). The ONE-Glo™ signal was normalized to the CellTiter-Fluor™ signal, and the percentage of NFAT activation relative to high and low controls was calculated. The data were analyzed by using nonlinear regression to generate EC50 values. Selective CSK inhibitors affect an increase in luciferase expression in the presence of low level stimulation of the T-cell receptor.

T1 sequence (P41240 whole entry): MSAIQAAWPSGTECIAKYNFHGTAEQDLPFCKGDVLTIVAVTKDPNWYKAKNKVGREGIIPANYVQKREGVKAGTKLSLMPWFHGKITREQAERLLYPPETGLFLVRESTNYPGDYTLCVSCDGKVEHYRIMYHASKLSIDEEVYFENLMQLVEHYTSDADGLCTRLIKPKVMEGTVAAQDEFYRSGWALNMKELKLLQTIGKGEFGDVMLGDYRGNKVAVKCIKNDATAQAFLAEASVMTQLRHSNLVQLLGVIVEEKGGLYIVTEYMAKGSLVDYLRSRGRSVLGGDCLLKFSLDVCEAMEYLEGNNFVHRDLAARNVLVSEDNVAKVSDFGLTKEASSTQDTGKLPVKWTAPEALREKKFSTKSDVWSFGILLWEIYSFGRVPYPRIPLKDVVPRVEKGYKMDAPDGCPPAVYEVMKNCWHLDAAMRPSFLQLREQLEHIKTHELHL

SMILES	IC50 (CSK)	IC50 (LCK)	EC50 (Jurkat/NFAT-RE cells)
O=c1c(-c2c(F)ccc(NS(=O)(=O)c3cc4scnc4cc3F)c2F)cc2cnc(Nc3ccn(C(F)F)n3)cc2n1C1CC1 [P-0012, N-(3-(1-cyclopropyl-7-((1-(difluoromethyl)-1H-pyrazol-3-yl)amino)-2-oxo-1,2-dihydro-1,6-naphthyndin-3-yl)-2,4-difluorophenyl)-5-fluorobenzo[d]thiazole-6-sulfonamide]	0.001 to 0.5 µM	0.5 to 5 µM	0.001 to 0.5 µM
O=c1c(-c2c(F)ccc(NS(=O)(=O)c3cc4scnc4cc3F)c2F)cc2cnc(Nc3ccn(C(F)F)n3)cc2n1C1CC(F)(F)C1 [P-0013, N-(3-(1-(3,3-difluorocyclobutyl)-7-((1-(difluoromethyl)-1H-pyrazol-3-yl)amino)-2-oxo-1,2-dihydro-1,6-naphthyridin-3-yl)-2,4-difluorophenyl)-5-fluorobenzo[d]thiazole-6-sulfonamide]	0.001 to 0.5 µM	0.5 to 5 µM	0.001 to 0.5 µM
O=c1c(-c2c(F)ccc(NS(=O)(=O)c3cc4scnc4cc3F)c2F)cc2cnc(NCCO)cc2n1C1CC1 [P-0014, N-(3-(1-cyclopropyl-7-((2-hydroxyethyl)amino)-2-oxo-1,2-dihydro-1,6-naphthyridin-3-yl)-2,4-difluorophenyl)-5-fluorobenzo[d]thiazole-6-sulfonamide]	0.001 to 0.5 µM	5 to 100 µM	0.5 to 5 µM
O=c1c(-c2c(F)ccc(NS(=O)(=O)c3cc4scnc4cc3F)c2F)cc2cnc(NCCO)cc2n1C1CC(F)(F)C1 [P-0015, N-(3-(1-(3,3-difluorocyclobutyl)-7-((2-hydroxyethyl)amino)-2-oxo-1,2-dihydro-1,6-naphthyridin-3-yl)-2,4-difluorophenyl)-5-fluorobenzo[d]thiazole-6-sulfonamide]	0.5 to 5 µM	5 to 100 µM	0.5 to 5 µM
CC(F)(F)Cn1c(=O)c(-c2c(F)ccc(NS(=O)(=O)c3cc4scnc4cc3F)c2F)cc2cnc(N)cc21 [P-0016, N-(3-(7-amino-1-(2,2-difluoropropyl)-2-oxo-1,2-dihydro-1,6-naphthyridin-3-yl)-2,4-difluorophenyl)-5-fluorobenzo[d]thiazole-6-sulfonamide]	0.001 to 0.5 µM	5 to 100 µM	0.001 to 0.5 µM
Nc1cc2c(cn1)cc(-c1c(F)ccc(NS(=O)(=O)c3cc4scnc4cc3F)c1F)c(=O)n2CC(F)(F)C1CC1 [P-0017, N-(3-(7-amino-1-(2-cyclopropyl-2,2-difluoroethyl)-2-oxo-1,2-dihydro-1,6-naphthyridin-3-yl)-2,4-difluorophenyl)-5-fluorobenzo[d]thiazole-6-sulfonnamide]	0.001 to 0.5 µM	5 to 100 µM	0.001 to 0.5 µM
Nc1cc2c(cn1)cc(-c1c(F)ccc(NS(=O)(=O)c3cc4scnc4cc3F)c1F)c(=O)n2CC1CC(F)(F)C1 [P-0018, N-(3-(7-amino-1-((3,3-difluorocyclobutyl)methyl)-2-oxo-1,2-dihydro-1,6-naphthyridin-3-yl)-2,4-difluorophenyl)-5-fluorobenzo[d]thiazole-6-sulfonamide]	0.001 to 0.5 µM	5 to 100 µM	0.001 to 0.5 µM
Nc1cc2c(cn1)cc(-c1c(F)ccc(NS(=O)(=O)c3ccc4ncsc4c3F)c1F)c(=O)n2CC(F)F [P-0019, N-(3-(7-amino-1-(2,2-difluoroethyl)-2-oxo-1,2-dihydro-1,6-naphthyridin-3-yl)-2,4-difluorophenyl)-7-fluorobenzo[d]thiazole-6-sulfonamide]	0.001 to 0.5 µM	0.5 to 5 µM	0.001 to 0.5 µM
CC(F)(F)Cn1c(=O)c(-c2c(F)ccc(NS(=O)(=O)c3ccc4ncsc4c3F)c2F)cc2cnc(N)cc21 [P-0020, N-(3-(7-amino-1-(2,2-difluoropropyl)-2-oxo-1,2-dihydro-1,6-naphthyridin-3-yl)-2,4-difluorophenyl)-7-fluorobenzo[d]thiazole-6-sulfonamide]	0.001 to 0.5 µM	0.5 to 5 µM	0.001 to 0.5 µM
Nc1cc2c(cn1)cc(-c1c(F)ccc(NS(=O)(=O)c3cc4scnc4cc3F)c1F)c(=O)n2CC(F)(F)F [P-0021, N-(3-(7-amino-2-oxo-1-(2,2,2-trifluoroethyl)-1,2-dihydro-1,6-naphthyridin-3-yl)-2,4-difluorophenyl)-5-fluorobenzo[d]thiazole-6-sulfonamide]	0.001 to 0.5 µM	0.5 to 5 µM	0.001 to 0.5 µM
Nc1cc2c(cn1)cc(-c1c(F)ccc(NS(=O)(=O)c3ccc4ncsc4c3F)c1F)c(=O)n2CC(F)(F)F [P-0022, N-(3-(7-amino-2-oxo-1-(2,2,2-trifluoroethyl)-1,2-dihydro-1,6-naphthyridin-3-yl)-2,4-difluorophenyl)-7-fluorobenzo[d]thiazole-6-sulfonamide]	0.001 to 0.5 µM	0.5 to 5 µM	0.001 to 0.5 µM
Nc1cc2c(cn1)cc(-c1c(F)ccc(NS(=O)(=O)c3ccc4ncsc4c3)c1F)c(=O)n2CC(F)F [P-0023, N-(3-(7-amino-1-(2,2-difluoroethyl)-2-oxo-1,2-dihydro-1,6-naphthyridin-3-yl)-2,4-difluorophenyl)benzo[d]thiazole-6-sulfonamide]	0.001 to 0.5 µM	0.5 to 5 µM	0.001 to 0.5 µM
Nc1cc2c(cn1)cc(-c1c(F)ccc(NS(=O)(=O)c3cc4scnc4cc3F)c1F)c(=O)n2C1CCC1 [P-0024, N-(3-(7-amino-1-cyclobutyl-2-oxo-1,2-dihydro-1,6-naphthyridin-3-yl)-2,4-difluorophenyl)-5-fluorobenzo[d]thiazole-6-sulfonamide]	0.001 to 0.5 µM	5 to 100 µM	0.001 to 0.5 µM
